For one data set, the system named is HIV. The settings on record: peptide without selenium, cited from earlier work.
For the next data set, the target named is virus gp 120 and CD4 (Human immunodeficiency virus type 1 group M subtype B, UniProt P04578). Particulars: peptide without selenium; only observed at this relatively high concentration; cited from earlier work.
For a further data set, the system named is normal prostate cells. The class given is cell-based.
The test system of the next data set is PC-3 cells. The class given is cell-based.
The next data set relates to DU-145 cells. The data set is classed as cell-based.
Another data set deals with normal human lung cells. Particulars: up to 10 μM.

Read-outs that look alike come from different tables or passages of the source.

In the case of Se-TYICEVEDQKEE, the “inactivation of HIV” value in the data set on HIV-1 (10 μg/ml) is “over 95%”. For the same substance, the “concentration for 50% inactivation of HIV” value in the data set with HIV-1 (0.25 mM reduced glutathione) turned out to be 1 microgram per ml. Also, the “inhibition of cell infection” value is on record as “over 50%” in the data set on HIV-1 (0.006 micrograms per ml) and “over 99%” in the data set with HIV-1 (0.5 micrograms per ml). Further, in the data set with HIV-1 (10 micrograms per ml, 0.25 mM reduced glutathione, within 1 hour), the “inactivation of HIV virus” value came to 95%. Also, the “concentration for 50% (half maximal) inactivation of HIV” value in the data set with HIV-1 (1 hour pre-incubation, 0.25 mM reduced glutathione) came out at 1 µg/mL. Further, the “concentration of peptide that binds and inactivates HIV in one hour” value in the data set on HIV-1 (one hour) came to 0.5 µg/mL. The IC50 in the data set on HIV-1 (read-out: concentration for half maximal inactivation of virus, peptide in the medium during infection, after 100-fold dilution in culture medium) is 5.9 nM; in the data set with HIV-1 (read-out: concentration for half maximal inactivation of virus, peptide during the 1 hour pre-incubation), 590 nM. Moreover, the “inactivation of HIV-1 (ability of infected cells to produce virus)” value in the data set on HIV-1 (seleno-peptide 0.1 ug/ml, one hour with glutathione 250 uM) came out at 95%. Also, the “increase in effectiveness at preventing infection by coupling selenium to the 12-mer peptide” value with HIV-1 (versus peptide without selenium) is 50 fold.
As to “TYICEVEDQKEE [gp120-binding 12-mer peptide]”, the “effect of peptide without selenium on HIV” value with HIV-1 (even at 100 μg/ml, the highest concentration tested) is “no significant effect”. Moreover, in the data set on HIV-1 (peptide without selenium), the “effect of control peptide solution on HIV-1 inactivation” value is “no effect”. Moreover, in the data set on HIV (corresponds to 32 μM), the “peptide concentration with 50% infection blocking activity” value is given as “about 50 μg/ml”. Besides, the IC50 with HIV (read-out: peptide concentration with 50% infection blocking activity) was 32000 nM. On virus gp 120 and CD4, the “concentration at which an effect on the gp 120-CD4 interaction was observed” value is 457 micrograms per ml.
On to “selenium adduct of dihydrotesterone [SeDHT]”, for which the sensitivity of cells result is reported as “sensitive” in the data set on normal prostate cells, “Only the prostate cells are sensitive” in the data set with normal human lung cells and “Only the prostate cells are sensitive” in the data set with colorectal cancer cells. Besides, the “concentration that kills the cells” value in the data set with PC-3 cells and in the data set with DU-145 cells was “less than 10 micromolar” throughout.
